Values after ≈ are worked out from the molar mass of the structure shown. Values belong to the compound of their own block, whether it stands above or below them.
What was measured:
Experiment in all cases: ≥ marks a high value that may be exact or a test limit, other limits are often not marked, values filed in µg/mL are converted to µM
[1] = tested on: Micrococcus luteus A270
[2] = tested on: Escherichia coli SBS 363
[3] = tested on: Cladosporium sp.
[4] = tested on: Candida tropicalis IOC 4560
[5] = tested on: Pseudomonas aeruginosa ATCC 27853
[6] = tested on: Cryptococcus neoformans
[7] = tested on: Penicillium expansum
[8] = tested on: Candida albicans IOC 4558
[9] = tested on: Pseudomonas aeruginosa 1570
[10] = tested on: Pseudomonas aeruginosa 5167
[11] = tested on: Pseudomonas aeruginosa 8600
[12] = tested on: Staphylococcus aureus E4049
[13] = tested on: Staphylococcus aureus ATCC 9144
[14] = tested on: Staphylococcus aureus 5118
[15] = tested on: Staphylococcus aureus CMCC 26003
[16] = tested on: Bacillus subtilis CMCC 63501
[17] = tested on: Listeria monocytogenes ATCC 19115
[18] = tested on: Salmonella typhimurium KCTC 1926
[19] = tested on: Pseudomonas aeruginosa 4891
[20] = tested on: Bacillus subtilis KCTC 1998
[21] = tested on: Staphylococcus aureus CCARM 3090
[22] = tested on: Escherichia coli CCARM 1238
[23] = tested on: Staphylococcus aureus CCARM 3518
[24] = tested on: Escherichia coli CCARM 1229
[25] = tested on: Listeria monocytogenes KCTC 3710
[26] = tested on: Trichosporon beigelii KCTC 7707
[27] = tested on: Escherichia coli ATCC 25922
[28] = tested on: Pseudomonas aeruginosa 4007
[29] = tested on: Candida albicans KCTC 7270
[30] = tested on: Staphylococcus aureus ATCC 25923
[31] = tested on: Staphylococcus aureus ATCC 29213
[32] = tested on: Staphylococcus epidermidis ATCC 35984
[33] = tested on: Pseudomonas aeruginosa ATCC 47615
[34] = tested on: Staphylococcus aureus ATCC 33591
[35] = tested on: Staphylococcus aureus ATCC 27660
[36] = tested on: Pseudomonas aeruginosa ATCC 10145
[37] = tested on: Escherichia coli D31
[38] = tested on: Klebsiella pneumoniae ATCC 700603
[39] = tested on: Micrococcus luteus 1D00051
[40] = tested on: Vibrio vulnificus 1H00066
[41] = tested on: Staphylococcus aureus 1D00101

SMILES: CC(C)C[C@H](NC(=O)[C@H](Cc1ccccc1)NC(=O)[C@H](CC(=O)O)NC(=O)CNC(=O)[C@H](CCC(=O)O)NC(=O)CNC(=O)[C@H](CO)NC(=O)[C@H](CC(=O)O)NC(=O)[C@H](C)N)C(=O)N[C@@H](C)C(=O)N[C@@H](CCC(=O)O)C(=O)NCC(=O)NCC(=O)NCC(=O)N[C@H](C(=O)N[C@@H](CCCN=C(N)N)C(=O)O)C(C)C [ADSGEGDFLAEGGGVR]
- MIC [1]: ≥ 59.4 µM
- MIC [2]: 7.39 µM (≈ 11.4 µg/mL)
- MIC [3]: ≥ 59.4 µM
- MIC [4]: 7.39 µM (≈ 11.4 µg/mL)
- MIC [5]: 7.39 µM (≈ 11.4 µg/mL)
- MIC [6]: ≥ 59.4 µM
- MIC [7]: ≥ 59.4 µM
- MIC [8]: ≥ 59.4 µM

SMILES: CC(C)C[C@H](NC(=O)[C@H](CC(C)C)NC(=O)[C@H](CCCCN)NC(=O)[C@H](CCCCN)NC(=O)[C@H](CC(C)C)NC(=O)[C@H](CC(C)C)NC(=O)[C@H](CCCCN)NC(=O)[C@H](CC(C)C)NC(=O)[C@H](C)N)C(N)=O [ALKLLKKLL]
- MIC [9]: ≥ 43.5 µM
- MIC [10]: ≥ 123 µM
- MIC [11]: 10.9 µM (≈ 11.3 µg/mL)

SMILES: CC[C@H](C)[C@H](NC(=O)CNC(=O)[C@H](CC(=O)O)NC(=O)[C@@H](N)CC(=O)O)C(=O)N[C@@H](Cc1ccccc1)C(=O)N[C@H](C(=O)N[C@@H](C)C(=O)N[C@@H](Cc1ccccc1)C(=O)N[C@H](C(=O)N[C@@H](C)C(=O)N[C@H](C(=O)N[C@@H](CC(N)=O)C(=O)N[C@H](C(=O)N[C@H](C(=O)N[C@@H](CC(C)C)C(=O)N[C@H](C(=O)N[C@H](C(=O)N[C@H](C(=O)N[C@@H](Cc1ccccc1)C(=O)N[C@@H](Cc1ccc(O)cc1)C(=O)O)[C@@H](C)CC)C(C)C)[C@@H](C)O)[C@@H](C)CC)[C@@H](C)CC)[C@@H](C)CC)[C@@H](C)CC)[C@@H](C)CC [DDGIFIAFIAINIILTVIFY]
- MIC [12]: ≥ 271 µM
- MIC [13]: ≥ 271 µM
- MIC [14]: 2.2 µM (≈ 5 µg/mL)

SMILES: CC[C@H](C)[C@H](NC(=O)CNC(=O)[C@H](CCCCN)NC(=O)[C@H](Cc1ccccc1)NC(=O)[C@H](CC(C)C)NC(=O)[C@H](CCCCN)NC(=O)[C@H](CCCCN)NC(=O)[C@H](C)NC(=O)[C@H](CCCCN)NC(=O)[C@H](CCCCN)NC(=O)[C@H](Cc1ccccc1)NC(=O)CNC(=O)[C@H](CCCCN)NC(=O)[C@H](C)NC(=O)[C@H](Cc1c[nH]c2ccccc12)NC(=O)[C@@H](NC(=O)[C@H](CCCCN)NC(=O)[C@@H](NC(=O)[C@H](CC(C)C)NC(=O)[C@H](CCCCN)NC(=O)[C@@H](N)CCCCN)[C@@H](C)CC)C(C)C)C(=O)NCC(=O)O [KKLIKVWAKGFKKAKKLFKGIG]
- MIC [35]: 0.94 µM (≈ 2.37 µg/mL)
- MIC [36]: 1.88 µM (≈ 4.73 µg/mL)
- MIC [37]: 0.94 µM (≈ 2.37 µg/mL)
- MIC [38]: 1.88 µM (≈ 4.73 µg/mL)

SMILES: CC[C@H](C)[C@H](NC(=O)[C@H](CS)NC(=O)[C@H](Cc1cnc[nH]1)NC(=O)[C@H](CCCN=C(N)N)NC(=O)[C@@H](N)CCCN=C(N)N)C(=O)N[C@@H](CCCCN)C(=O)N[C@@H](CCCCN)C(=O)N[C@@H](CS)C(=O)N[C@@H](CCSC)C(=O)N[C@@H](CCCCN)C(=O)N[C@@H](CO)C(=O)N[C@@H](CCCN=C(N)N)C(=O)N[C@@H](CCCCN)C(=O)N[C@@H](Cc1cnc[nH]1)C(=O)N[C@@H](CC(N)=O)C(=O)N[C@@H](CCC(=O)O)C(=O)N[C@@H](CCCN=C(N)N)C(=O)N[C@@H](CCSC)C(=O)N[C@H](C(=O)N[C@@H](CCCN=C(N)N)C(=O)N[C@H](C(=O)N[C@@H](CCCN=C(N)N)C(=O)N[C@@H](CCCN=C(N)N)C(=O)N[C@@H](CCCCN)C(=O)O)[C@@H](C)CC)[C@@H](C)CC [RRHCIKKCMKSRKHNERMIRIRRK]
- MIC [39]: 5 µM (≈ 15.8 µg/mL)
- MIC [40]: ≥ 300 µM
- MIC [41]: ≥ 40 µM

Continued, values first:

- MIC [15]: ≥ 62 µM
- MIC [16]: ≥ 124 µM
- MIC [17]: 31 µM (≈ 32 µg/mL)
SMILES: CC[C@H](C)[C@H](NC(=O)[C@H](CCCN=C(N)N)NC(=O)[C@H](CCCN=C(N)N)NC(=O)[C@H](Cc1c[nH]c2ccccc12)NC(=O)[C@@H](N)Cc1ccccc1)C(=O)N[C@@H](CCCN=C(N)N)C(=O)N[C@H](C(N)=O)C(C)C [FWRRIRV]

- MIC [18]: 16 µM (≈ 42.2 µg/mL)
- MIC [19]: ≥ 64 µM
- MIC [20]: ≥ 32 µM
- MIC [21]: ≥ 64 µM
- MIC [22]: ≥ 64 µM
- MIC [23]: ≥ 64 µM
- MIC [5]: 16 µM (≈ 42.2 µg/mL)
- MIC [24]: ≥ 64 µM
- MIC [25]: ≥ 32 µM
- MIC [26]: ≥ 64 µM
- MIC [27]: 16 µM (≈ 42.2 µg/mL)
- MIC [28]: ≥ 64 µM
- MIC [29]: ≥ 64 µM
- MIC [30]: 32 µM (≈ 84.5 µg/mL)
SMILES: CC[C@H](C)[C@H](NC(=O)CNC(=O)[C@H](CCC(N)=O)NC(=O)[C@H](CO)NC(=O)[C@@H](NC(=O)[C@H](CCCCN)NC(=O)[C@H](CCCCN)NC(=O)[C@H](CC(C)C)NC(=O)[C@H](C)NC(=O)[C@H](CC(N)=O)NC(=O)[C@H](CC(C)C)NC(=O)CN)C(C)C)C(=O)N[C@@H](Cc1cnc[nH]1)C(=O)N[C@@H](CCC(=O)O)C(=O)N[C@@H](CO)C(=O)N[C@H](C(=O)N[C@@H](CCCCN)C(=O)N[C@@H](CC(C)C)C(=O)N[C@H](C(=O)N[C@@H](CC(N)=O)C(=O)N[C@@H](CC(N)=O)C(=O)N[C@@H](Cc1cnc[nH]1)C(=O)N[C@H](C(=O)N[C@@H](CCC(N)=O)C(N)=O)C(C)C)[C@@H](C)CC)[C@@H](C)CC [GLNALKKVSQGIHESIKLINNHVQ]

- MIC [31]: 15.6 µM (≈ 31.2 µg/mL)
- MIC [32]: 1 µM (≈ 2 µg/mL)
- MIC [5]: 0.251 µM (≈ 0.5 µg/mL)
- MIC [33]: 1.96 µM (≈ 3.91 µg/mL)
- MIC [34]: 16 µM (≈ 32 µg/mL)
- MIC [27]: 3.91 µM (≈ 7.8 µg/mL)
- MIC [30]: 5.67 µM (≈ 11.3 µg/mL)
SMILES: CC[C@H](C)[C@H](NC(=O)[C@H](CCCCN)NC(=O)[C@@H](NC(=O)[C@H](Cc1ccccc1)NC(=O)[C@H](C)NC(=O)[C@H](CCCCN)NC(=O)CNC(=O)[C@H](Cc1ccccc1)NC(=O)[C@H](CCCCN)NC(=O)[C@H](CCCCN)NC(=O)[C@H](C)NC(=O)[C@H](CCCCN)NC(=O)[C@H](CCCCN)NC(=O)[C@H](CC(C)C)NC(=O)[C@H](Cc1ccccc1)NC(=O)[C@@H](N)CCCCN)C(C)C)C(=O)N[C@@H](CC(C)C)C(N)=O [KFLKKAKKFGKAFVKIL]
